These results are taken from ChEMBL document CHEMBL2163289, “The discovery of N-[5-(4-bromophenyl)-6-[2-[(5-bromo-2-pyrimidinyl)oxy]ethoxy]-4-pyrimidinyl]-N'-propylsulfamide (Macitentan), an orally active, potent dual endothelin receptor antagonist” (J Med Chem, 2012).

pIC50: −log10 of the molar value. The source made the active and inactive calls. The rule behind the calls is not given here.

As a reminder, the bioavailability is dose-corrected exposure relative to a reference, in per cent. Read a high bioavailability as good availability. For orientation: Tmax means the time from dosing to the highest level. What is called AUC(0-inf) is total exposure, with the tail of the curve extrapolated. Low values mean low exposure, high ones high exposure. Broadly, the Cmax is the highest concentration seen after dosing. One may read the half-life as the time in which the quantity being followed falls by half. Read a low half-life as fast loss. Broadly, the clearance is the volume of plasma or blood freed of the substance per unit of time. As a reminder, the pIC50 is −log10 of the IC50, conventionally taken in molar units.

For data set [1], the species on record is Rattus norvegicus. Put plainly: Toxicity in rat assessed as inhibition of bile salt transport. It is filed as organism-based. To be noted: in vivo.
The species named for the next data set is Canis familiaris. Kind of data set: Drug metabolism in beagle dog assessed as N-[5-(4-Bromophenyl)-6-[2-[(5-bromo-2-pyrimidinyl)oxy]ethoxy]-4-pyrimidinyl]-sulfamide formation. The data set is classed as ADME, organism-based, Canis lupus familiaris. The conditions noted are these: in vivo.
The species entered for data set [2] is Rattus norvegicus. Kind of data set: Drug metabolism in Wistar rat assessed as N-[5-(4-Bromophenyl)-6-[2-[(5-bromo-2-pyrimidinyl)oxy]ethoxy]-4-pyrimidinyl]-sulfamide formation. To be noted: in vivo. It is filed as ADME, organism-based.
A short description of data set [3]: Oral bioavailability in beagle dog at 10 mg/kg. The data set is classed as ADME, organism-based, Canis lupus familiaris. To be noted: in vivo.
Data set [4] can be described thus: Tmax in beagle dog at 10 mg/kg, po. It is filed as ADME, organism-based, Canis lupus familiaris. The arrangement: dose 10 mg/kg, route oral. The conditions noted are these: in vivo.
Data set [5] in a line: AUC (0 to infinity) in beagle dog at 10 mg/kg, po. It is filed as ADME, organism-based, Canis lupus familiaris. Also on record: time infinity, dose 10 mg/kg, route oral. To be noted: plasma.
Data set [6] in a line: Cmax in beagle dog at 10 mg/kg, po. The conditions noted are these: in vivo. It is filed as ADME, organism-based, Canis lupus familiaris. Also on record: dose 10 mg/kg, route oral.
Data set [7] in a line: Half life in beagle dog at 1 mg/kg, iv. It is filed as ADME, organism-based, Canis lupus familiaris. Also on record: dose 1 mg/kg, route intravenous. To be noted: in vivo.
Data set [8] is described as follows: Clearance in beagle dog at 1 mg/kg, iv. The arrangement: dose 1 mg/kg, route intravenous. The conditions noted are these: in vivo. The data set is classed as ADME, organism-based, Canis lupus familiaris.
Data set [9] in a line: Volume of distribution at steady state in beagle dog at 1 mg/kg, iv. The arrangement: dose 1 mg/kg, route intravenous. It is filed as ADME, organism-based, Canis lupus familiaris. To be noted: in vivo, read-out: Vdss.
Data set [10] can be described thus: AUC (0 to infinity) in beagle dog at 1 mg/kg, iv. The arrangement: dose 1 mg/kg, route intravenous, time infinity. The conditions noted are these: plasma. It is filed as ADME, organism-based, Canis lupus familiaris.
Data set [11] in a line: Tmax in Wistar rat at 10 mg/kg, po. The data set is classed as ADME, organism-based. The arrangement: dose 10 mg/kg, route oral. To be noted: in vivo.
A short description of data set [12]: Oral bioavailability in Wistar rat at 10 mg/kg. The data set is classed as ADME, organism-based. To be noted: in vivo.
Data set [13] in a line: AUC (0 to infinity) in Wistar rat at 10 mg/kg, po. To be noted: plasma. Also on record: time infinity, dose 10 mg/kg, route oral. The data set is classed as ADME, organism-based.
Data set [14] can be described thus: Cmax in Wistar rat at 10 mg/kg, po. Also on record: dose 10 mg/kg, route oral. The conditions noted are these: in vivo. It is filed as ADME, organism-based.
Data set [15] can be described thus: Volume of distribution at steady state in Wistar rat at 1 mg/kg, iv. The data set is classed as ADME, organism-based. Also on record: dose 1 mg/kg, route intravenous. To be noted: in vivo, read-out: Vdss.
Data set [16] can be described thus: Half life in Wistar rat at 1 mg/kg, iv. It is filed as ADME, organism-based. The arrangement: dose 1 mg/kg, route intravenous. To be noted: in vivo.
Data set [17] in a line: Clearance in Wistar rat at 1 mg/kg, iv. It is filed as ADME, organism-based. Also on record: dose 1 mg/kg, route intravenous. To be noted: in vivo.
Data set [18] is described as follows: AUC (0 to infinity) in Wistar rat at 1 mg/kg, iv. It is filed as ADME, organism-based. Also on record: time infinity, dose 1 mg/kg, route intravenous. The conditions noted are these: plasma.
The test system of data set [19] is Rattus norvegicus. Put plainly: Toxicity in telemeterized hypertensive Dahl salt-sensitive rat assessed as tachyphylaxis at 1 mg/kg, po administered QD for 5 days. Also on record: dose 1 mg/kg, route oral. The data set is classed as organism-based. To be noted: in vivo, 120 h.
Data set [20] has as its system Rattus norvegicus. Put plainly: Antihypertensive activity in telemeterized hypertensive Dahl salt-sensitive rat assessed as reduction in mean arterial blood pressure at 1 mg/kg, po administered QD for 5 days. The data set is classed as functional, Artery.
Data set [21] concerns Rattus norvegicus. Put plainly: Antihypertensive activity in telemeterized hypertensive Dahl salt-sensitive rat assessed as duration of mean arterial blood pressure lowering action at 3 mg/kg, po. The data set is classed as functional, Artery.
Data set [22] relates to Rattus norvegicus. Put plainly: Antihypertensive activity in telemeterized hypertensive Dahl salt-sensitive rat assessed as reduction in mean arterial blood pressure at 3 mg/kg, po measured over 6 hrs. It is filed as functional, Artery.
For a further data set, the target named is T1, Endothelin-1 receptor (Homo sapiens, UniProt P25101).
T1 sequence (P25101 whole entry): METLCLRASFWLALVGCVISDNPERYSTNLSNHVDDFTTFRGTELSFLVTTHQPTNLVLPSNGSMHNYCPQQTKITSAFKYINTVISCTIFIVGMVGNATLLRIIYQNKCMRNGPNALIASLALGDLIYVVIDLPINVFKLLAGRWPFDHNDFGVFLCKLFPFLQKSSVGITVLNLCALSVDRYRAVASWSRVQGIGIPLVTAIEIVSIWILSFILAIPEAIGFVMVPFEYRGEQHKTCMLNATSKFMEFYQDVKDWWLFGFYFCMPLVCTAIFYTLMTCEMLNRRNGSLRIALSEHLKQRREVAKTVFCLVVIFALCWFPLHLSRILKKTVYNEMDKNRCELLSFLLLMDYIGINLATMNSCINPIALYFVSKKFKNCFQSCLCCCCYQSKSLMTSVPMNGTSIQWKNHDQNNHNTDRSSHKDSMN
Put plainly: Displacement of [I125]ET1 from recombinant ETA receptor expressed in CHO cells after 2 hrs by TopCount analysis. It is filed as cell-based.

Data set [23] relates to Rattus norvegicus. Kind of data set: Effect on heart rate in telemeterized hypertensive Dahl salt-sensitive rat at 1 to 100 mg/kg, po.
Data set [24] concerns Rattus norvegicus. Put plainly: Antihypertensive activity in po dosed telemeterized hypertensive Dahl salt-sensitive rat assessed as reduction in mean arterial blood pressure. The conditions noted are these: Artery.
Data set [25] concerns Rattus norvegicus. Put plainly: Antihypertensive activity in telemeterized hypertensive Dahl salt-sensitive rat assessed as reduction in mean arterial blood pressure at 1 mg/kg, po administered QD for 5 days measured 48 hrs post last-dose. The conditions noted are these: Artery.
The test system of data set [26] is Rattus norvegicus. Kind of data set: Antihypertensive activity in telemeterized hypertensive Dahl salt-sensitive rat assessed as duration of mean arterial blood pressure lowering action at 100 mg/kg, po. The data set is classed as functional, Artery.
For data set [27], the system named is Rattus norvegicus. Kind of data set: Antihypertensive activity in telemeterized hypertensive Dahl salt-sensitive rat assessed as reduction in mean arterial blood pressure at 100 mg/kg, po measured over 6 hrs. It is filed as functional, Artery.
Data set [28] relates to Rattus norvegicus. Put plainly: Effect on heart rate in telemeterized hypertensive Dahl salt-sensitive rat at 3 mg/kg, po.

For the compound `CCCNS(=O)(=O)Nc1ncnc(OCCOc2ncc(Br)cn2)c1-c1ccc(Br)cc1`, the values for the Activity entry in the data set listed under Rattus norvegicus [1], in the data set with Rattus norvegicus [19] and with Rattus norvegicus [24] were “Non-toxic”, “Non-toxic” and “Dose-dependent effect”, respectively. Further, the Drug metabolism entry in the data set listed under Canis familiaris and in the data set filed under Rattus norvegicus [2] was “Active” throughout. The bioavailability in [3] came out at 87%; in data set [12] it was 69%. Besides, the Tmax came to 2 h in [4] and 6 h in data set [11]. In addition, the AUC(0-inf) in data set [5] was 27500 ng·h/mL; in [10], 3170 ng·h/mL; in data set [13], 18500 ng·h/mL; in [18], 2680 ng·h/mL. Further, the Cmax in data set [6] turned out to be 4590 ng/mL; in [14], 1670 ng/mL. Further, the half-life in data set [7] was 4.1 h; in data set [16], 5.1 h. Also, the clearance stood at 5.4 mL/min/kg in data set [8] and 6.7 mL/min/kg in [17]. The values for the Vd in data set [9] and in data set [15] were 0.9 L/kg and 1.8 L/kg, respectively. For the same compound, the MPE with Rattus norvegicus [20] is listed as 20 mmHg. In addition, the Time in the data set with Rattus norvegicus [21] worked out at 60 h. Further, the “Fall in mean arterial blood pressure” value in the data set with Rattus norvegicus [22] was 25 mmHg. Also, the negative-log IC50 (pIC50) on Endothelin-1 receptor was 9.30. Also, the outcome with Rattus norvegicus [23] was inactive. Also, in the data set with Rattus norvegicus [25], the result was Active.
Take `COc1ccccc1Oc1c(NS(=O)(=O)c2ccc(C(C)(C)C)cc2)nc(-c2ncccn2)nc1OCCO` [BOSENTAN]: the Time amounted to 72 h in the data set on Rattus norvegicus [26] and 15 h with Rattus norvegicus [21]. The MPE in the data set with Rattus norvegicus [27] was determined as 30 mmHg. Moreover, the “Fall in mean arterial blood pressure” value in the data set with Rattus norvegicus [22] stood at 7 mmHg. Besides, in the data set with Rattus norvegicus [28], the outcome was inactive.
